Measurements published in US8372844B2, “Piperazinyl-propyl-pyrazole derivatives as dopamine D4 receptor antagonists, and pharmaceutical compositions containing the same” (Korea Research Institute of Chemical Technology, priority 2007, dated 2013).

What was measured:
[1] = tested on: apomorphine-induced cage climbing in mice; experiment: Apomorphine-induced climbing behavior in mice; format: in vivo; settings: ip 30 min prior to apomorphine (1 mg/kg, sc); for ED50: Mus musculus, read-out: Inhibitory effects on apomorphine-induced climbing behavior ED50 (mg/kg, ip)
Description: When mice were treated with apomorphine (1 mg/kg, sc), a potent dopamine receptor agonist, and were put into cylindrical cages (diameter, 12 cm/height, 14 cm) with the floor and wall consisting of metal bars and covered with a lid, they begin to perform repeatedly a psychotic behavior of ‘cage climbing’. Their climbing behaviors were monitored every 10 min for 30 min and scored by 4-point rating scale (0˜3 points) depending on the extent of the behavior (Costentin, J. et al., Nature 1975, 257, 405-7; Protais, P. et al., Psychopharmacology 1976, 50, 1-6).
The compounds were injected intraperitoneally into mice 30 min prior to apomorphine administration. The inhibitory effects of the compounds against control group were measured and each ED50 was calculated therefrom.

Rotarod deficit in mice [2] = format: in vivo; settings: mouse, in vivo; mice, ip, rod rotating at 6 rpm, 30-120 min after administration
Description: (§1) Each mouse was administered with a test drug, and then placed on a 1 inch diameter knurled plastic rod rotating at 6 rpm (Ugo-Basile, Milano, Italy), and the rotarod deficit (%) was obtained by counting the number of mice fallen from the rotating rod within 1 min at 30, 60, 90, and 120 min after the administration of the drug.

rotarod deficit in mice [3] = experiment: Rotarod deficit in mice; format: in vivo; settings: ip
Description: as §1

[4] = molecular target: T1, human recombinant dopamine D4.2 receptor (Homo sapiens, UniProt P21917, DEL265-296); experiment: Measurement of affinity for dopamine D4 receptor ([3H]YM-09151-2 binding); settings: [3H]YM-09151-2 0.1 nM, receptor expressed in CHO-K1 cells, 120 min at 25° C.
T1 construct: purchased PerkinElmer Life and Analytical Sciences, USA; host or cells: CHO-K1 cells
T1 sequence (P21917 with tags, fused parts or gaps DEL265-296): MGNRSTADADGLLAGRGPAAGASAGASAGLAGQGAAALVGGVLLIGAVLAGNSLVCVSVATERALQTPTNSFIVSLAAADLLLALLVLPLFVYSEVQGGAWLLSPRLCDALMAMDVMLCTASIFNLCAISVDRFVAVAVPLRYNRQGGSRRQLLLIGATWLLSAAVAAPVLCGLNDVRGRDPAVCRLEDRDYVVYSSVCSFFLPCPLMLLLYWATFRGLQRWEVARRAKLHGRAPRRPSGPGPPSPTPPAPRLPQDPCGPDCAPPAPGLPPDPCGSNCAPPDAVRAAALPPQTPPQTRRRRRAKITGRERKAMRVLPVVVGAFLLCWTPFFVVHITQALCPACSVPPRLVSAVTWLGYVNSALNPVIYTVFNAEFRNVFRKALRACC
Description: The affinities of the compounds for dopamine D4 receptor were measured by using human recombinant dopamine D4.2 receptor (PerkinElmer Life and Analytical Sciences, USA) expressed in CHO-K1 cells, and [^3H]YM-09151-2 (PerkinElmer) was used as a radioactive ligand.
50 mM Tris-HCl (pH 7.4) containing 120 mM NaCl, 5 mM KCl, 5 mM MgCl2 and 1 mM EDTA was used as a buffer solution for the analysis of receptor binding. [^3H] YM-09151-2 binding reactions were performed in a 96-well plate format.
For drug screening, a reaction mixture with a final volume of 0.25 mL was prepared by mixing a compound of the present invention, D4 receptor membrane (43 μg/well), [^3H] YM-09151-2 (0.1 nM), 50 mM Tris-HCl (pH 7.4) and the like. The reaction mixture was incubated for 120 min at 25° C., and then promptly passed through Wallac GF/C glass fiber filter (Wallac, Finland), which was already wetted in 0.5% PEI, by using Inotech harvester (Inotech) to terminate the reaction, and then washed with cold 50 mM Tris-HCl buffer solution. The filter was then covered with MeltiLex, sealed in a sample bag, and then dried in an oven. The radioactivity retained in the filter was finally counted using MicroBeta Plus, Wallac.
The affinity (IC50) of a compound for the receptor was calculated via nonlinear regression analysis of sigmoidal dose-response equation with the data obtained from three independent experiments (GraphPad Prism Program, San Diego, USA), which are carried out using 7-8 different concentrations of the compound in duplicate. Nonspecific binding was measured in the presence of 10 μM clozapine.

[5] = molecular target: T2, Human recombinant dopamine D2 receptor (Homo sapiens, UniProt P14416); experiment: Measurement of affinity for dopamine D2 receptor ([3H]spiperone binding)
T2 construct: purchased PerkinElmer; host or cells: CHO cell line
Description: (§2) Human recombinant dopamine D2 and D3 receptors, which were expressed in CHO cell lines, respectively, were purchased from PerkinElmer and Euroscreen, respectively.
(§3) 50 mM Tris-HCl (pH 7.4) containing […] and 1 mM EDTA was used as a buffer solution for the measurement of affinity for dopamine D2 receptor. 50 mM Tris-HCl (pH 7.4) containing 5 mM MgCl2, 5 mM EDTA, 5 mM KCl, 1.5 mM CaCl2 and 120 mM NaCl was used as a buffer solution for the measurement of affinity for dopamine D3 receptor. For measurement of non-specific binding, 10 μM haloperidol (haloperidol) was used.

[6] = molecular target: T3, Human recombinant dopamine D3 receptor (Homo sapiens, UniProt P35462); experiment: Measurement of affinity for dopamine D3 receptor ([3H]spiperone binding); settings: [3H]spiperone 0.8 nM, CHO cell line, 60 min at 27° C.
T3 construct: purchased Euroscreen; host or cells: CHO cell line
Description: as §2, §3

5-HT1A receptor = molecular target: T4, 5-HT1A receptor (Homo sapiens, UniProt P08908); experiment: Serotonin receptor binding experiment, 5-HT1A; design: species or system human or rat; settings: [3H]8-OH-DPAT 0.5 nM, 60 min at 27° C.; read-out: Receptor affinity (IC50, nM) 5-HT1A
T4 sequence (P08908 1-422): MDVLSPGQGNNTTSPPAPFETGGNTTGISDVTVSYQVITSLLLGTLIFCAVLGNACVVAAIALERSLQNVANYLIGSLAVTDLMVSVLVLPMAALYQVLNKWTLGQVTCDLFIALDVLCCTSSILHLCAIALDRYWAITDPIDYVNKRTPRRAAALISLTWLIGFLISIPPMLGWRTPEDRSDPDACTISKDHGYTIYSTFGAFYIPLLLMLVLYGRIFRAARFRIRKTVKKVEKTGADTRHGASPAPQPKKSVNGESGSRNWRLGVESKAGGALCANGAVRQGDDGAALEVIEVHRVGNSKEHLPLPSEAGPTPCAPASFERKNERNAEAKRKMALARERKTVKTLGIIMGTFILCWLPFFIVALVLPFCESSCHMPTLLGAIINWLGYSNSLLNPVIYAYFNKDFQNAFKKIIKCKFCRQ
Description: (§4) The measurement of affinity for serotonin 5-HT receptor family was performed according to the experimental conditions as specified in Table 2 below using the method same as in Experimental Example 1 above.

5-HT2A receptor = 5-HT2A receptor (Homo sapiens, UniProt P28223); experiment: Serotonin receptor binding experiment, 5-HT2A; design: species or system human or rat; settings: [3H]ketanserin 1 nM, 15 min at 37° C.; read-out: Receptor affinity (IC50, nM) 5-HT2A
Description: as §4

5-HT2C receptor = molecular target: T5, 5-HT2C receptor (Homo sapiens, UniProt P28335); experiment: Serotonin receptor binding experiment, 5-HT2C; design: species or system human or rat; settings: [3H]Mesulergine 1 nM, 30 min at 37° C.; read-out: Receptor affinity (IC50, nM) 5-HT2C
T5 sequence (P28335 33-458): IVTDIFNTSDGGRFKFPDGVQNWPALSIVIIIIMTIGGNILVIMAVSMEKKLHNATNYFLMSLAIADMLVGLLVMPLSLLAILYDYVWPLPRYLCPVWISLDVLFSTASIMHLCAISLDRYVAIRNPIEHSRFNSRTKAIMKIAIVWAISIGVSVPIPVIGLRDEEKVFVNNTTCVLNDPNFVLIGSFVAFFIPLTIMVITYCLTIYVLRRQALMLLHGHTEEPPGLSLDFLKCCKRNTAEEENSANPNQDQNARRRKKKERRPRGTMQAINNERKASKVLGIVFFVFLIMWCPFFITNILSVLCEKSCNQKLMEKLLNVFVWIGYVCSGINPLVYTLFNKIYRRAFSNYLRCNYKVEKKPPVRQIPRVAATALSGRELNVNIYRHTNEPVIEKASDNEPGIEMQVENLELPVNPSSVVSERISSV
Description: as §4

5-HT6 receptor = 5-HT6 receptor (Homo sapiens, UniProt P50406); experiment: Serotonin receptor binding experiment, 5-HT6; design: species or system human or rat; settings: [3H]LSD 1.8 nM, 60 min at 37° C.; read-out: Receptor affinity (IC50, nM) 5-HT6
Description: as §4

5-HT7 receptor = 5-HT7 receptor (Homo sapiens, UniProt P34969); experiment: Serotonin receptor binding experiment, 5-HT7; design: species or system human or rat; settings: [3H]LSD 3 nM, 90 min at 27° C.; read-out: Receptor affinity (IC50, nM) 5-HT7
Description: as §4

T2 sequence (P14416 whole entry): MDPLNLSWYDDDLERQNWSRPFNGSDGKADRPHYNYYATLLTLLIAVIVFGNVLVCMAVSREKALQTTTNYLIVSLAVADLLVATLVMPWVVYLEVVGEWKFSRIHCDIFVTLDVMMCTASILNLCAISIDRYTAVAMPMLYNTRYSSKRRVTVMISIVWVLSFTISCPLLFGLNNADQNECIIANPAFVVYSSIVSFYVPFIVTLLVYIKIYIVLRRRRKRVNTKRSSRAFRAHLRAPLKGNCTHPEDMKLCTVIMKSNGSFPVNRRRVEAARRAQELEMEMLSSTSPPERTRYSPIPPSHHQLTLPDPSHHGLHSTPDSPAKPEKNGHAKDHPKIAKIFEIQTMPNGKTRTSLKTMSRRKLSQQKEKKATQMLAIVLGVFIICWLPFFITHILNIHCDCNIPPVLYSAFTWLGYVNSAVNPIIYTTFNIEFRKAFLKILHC
Sequence of 5-HT6 receptor (P50406 whole entry): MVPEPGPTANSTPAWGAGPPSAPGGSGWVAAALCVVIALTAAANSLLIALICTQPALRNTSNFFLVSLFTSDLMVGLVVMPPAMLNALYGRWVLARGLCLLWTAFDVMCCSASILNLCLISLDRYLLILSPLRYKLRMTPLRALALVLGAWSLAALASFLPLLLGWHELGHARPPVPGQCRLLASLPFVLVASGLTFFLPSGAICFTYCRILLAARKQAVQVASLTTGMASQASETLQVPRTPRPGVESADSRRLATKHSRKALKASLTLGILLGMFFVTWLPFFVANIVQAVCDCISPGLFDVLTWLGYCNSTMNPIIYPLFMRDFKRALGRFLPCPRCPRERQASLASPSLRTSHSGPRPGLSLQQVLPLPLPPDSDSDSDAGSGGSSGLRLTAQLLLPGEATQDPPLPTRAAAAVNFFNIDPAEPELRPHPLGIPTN
T3 sequence (P35462 whole entry): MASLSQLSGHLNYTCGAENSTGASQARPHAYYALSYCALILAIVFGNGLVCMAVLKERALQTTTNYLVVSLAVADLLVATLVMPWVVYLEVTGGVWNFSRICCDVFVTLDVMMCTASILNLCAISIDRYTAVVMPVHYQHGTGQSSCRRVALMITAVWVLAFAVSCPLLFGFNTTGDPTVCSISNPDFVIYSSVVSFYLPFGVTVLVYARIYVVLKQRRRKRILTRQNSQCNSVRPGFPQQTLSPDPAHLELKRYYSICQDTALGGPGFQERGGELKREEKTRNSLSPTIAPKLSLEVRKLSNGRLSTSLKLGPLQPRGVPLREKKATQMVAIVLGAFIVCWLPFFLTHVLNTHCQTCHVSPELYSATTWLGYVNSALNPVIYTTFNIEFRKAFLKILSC
Sequence of 5-HT2A receptor (P28223 whole entry): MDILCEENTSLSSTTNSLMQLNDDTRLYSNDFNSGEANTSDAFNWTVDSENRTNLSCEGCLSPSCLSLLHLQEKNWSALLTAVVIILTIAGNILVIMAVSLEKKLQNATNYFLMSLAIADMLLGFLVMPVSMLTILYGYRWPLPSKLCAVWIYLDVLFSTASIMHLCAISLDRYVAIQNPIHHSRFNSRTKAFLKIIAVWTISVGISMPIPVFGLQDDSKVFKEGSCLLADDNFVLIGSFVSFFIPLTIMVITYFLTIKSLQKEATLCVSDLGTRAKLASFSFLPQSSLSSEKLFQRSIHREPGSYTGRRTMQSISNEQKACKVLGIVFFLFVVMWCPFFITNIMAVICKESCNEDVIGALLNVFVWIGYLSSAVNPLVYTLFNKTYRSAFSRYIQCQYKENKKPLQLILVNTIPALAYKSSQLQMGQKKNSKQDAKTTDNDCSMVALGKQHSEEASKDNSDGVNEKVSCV
Sequence of 5-HT7 receptor (P34969 whole entry): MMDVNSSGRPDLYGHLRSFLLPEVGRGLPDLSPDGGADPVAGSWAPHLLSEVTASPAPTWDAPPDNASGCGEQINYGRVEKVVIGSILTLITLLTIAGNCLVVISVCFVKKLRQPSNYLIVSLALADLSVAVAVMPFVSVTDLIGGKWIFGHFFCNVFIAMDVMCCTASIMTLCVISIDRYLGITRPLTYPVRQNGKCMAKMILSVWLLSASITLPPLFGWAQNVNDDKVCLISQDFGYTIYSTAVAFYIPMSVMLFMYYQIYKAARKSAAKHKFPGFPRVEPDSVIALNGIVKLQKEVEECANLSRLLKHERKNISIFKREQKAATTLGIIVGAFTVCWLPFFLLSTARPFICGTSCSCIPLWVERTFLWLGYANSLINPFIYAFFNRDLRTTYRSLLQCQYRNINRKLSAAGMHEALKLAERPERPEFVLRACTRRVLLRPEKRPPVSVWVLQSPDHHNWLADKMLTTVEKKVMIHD

SMILES | ED50 [1] [mg/kg] | TD50 (Rotarod deficit in mice [2]) [mg/kg] | rotarod deficit TD50 as times of ED50 for antipsychotic efficacy (rotarod deficit in mice [3]; mice) | IC50 [4] [nM] | affinity for D2 receptors (in words) [5] | IC50 ([5]; [3H]spiperone 0.5 nM, CHO cell line, 60 min at 27° C.) [nM] | IC50 [6] [nM] | IC50 (5-HT1A receptor) [nM] | IC50 (5-HT2A receptor) [nM] | IC50 (5-HT2C receptor) [nM] | IC50 (5-HT6 receptor) [nM] | IC50 (5-HT7 receptor) [nM] | Inhibitory effects on apomorphine-induced climbing behavior ED50 (mg/kg, ip) [1] [mg/kg] | rotarod deficit TD50 as times of ED50 for antipsychotic efficacy (rotarod deficit in mice [3]; mouse, in vivo)
CN1CCN(C2=Nc3cc(Cl)ccc3Nc3ccccc32)CC1 [clozapine, reference compound] | 4 | 3.9 | almost same |  |  |  |  |  |  |  |  |  |  | 
CCCc1cc(CCCN2CCN(c3ccc(Cl)c(Cl)c3)CC2)n(-c2ccccc2)n1 [Compound 163, 1-(3,4-dichlorophenyl)-4-(3-(1-phenyl-3-propyl-1H-pyrazol-5-yl)propyl)piperazine] |  |  |  | 7.7 | extremely poor affinity | 1060 | 420 | 494 | 45 | 558 | 617 | 651 |  | 
CCCc1cc(CCCN2CCN(c3ccc(Cl)cc3)CC2)n(-c2ccccc2)n1 [Compound 157, 1-(4-chlorophenyl)-4-(3-(1-phenyl-3-propyl-1H-pyrazol-5-yl)propyl)piperazine] | 8.8 to 14.5 |  |  |  |  |  |  |  |  |  |  |  | 14.5 | 2.2-5 times
